# From article PMC8698454, “Anti-Colonization Effect of Au Surfaces with Self-Assembled Molecular Monolayers Functionalized with Antimicrobial Peptides on S. epidermidis” (Antibiotics, 2021)
# Read-outs that look alike come from different tables or passages of the source.
# Experiments:
# Gram-positive bacteria = format: cell-based, S. aureus and S. epidermidis; conditions: text summary over S. aureus ATCC 9144 and S. epidermidis 1457
# Experimental: (§1) The minimal inhibitory concentration (MIC) of peptides 1a, 1b, 2a, and 2b were determined by broth microdilution according to the Clinical Laboratory Standard Institute (CLSI) method […]-A9. The MICs of the peptides 1c, 1d, 2c, and 2d were determined by broth dilution according to the European Committee for Antimicrobial Susceptibility Testing (EUCAST). Final concentrations of 0.5-256 μg/mL were tested against a panel of reference bacteria-S. aureus (ATCC 9144), S. epidermidis (1457), E. coli (ATCC 25922), and P. aeruginosa (ATCC 27853). Each strain was tested in biological triplicate. The MIC values were defined as the lowest concentration of the peptides resulting in no visual growth.
# [1] = system: Escherichia coli ATCC 25922; format: cell-based; conditions: for Antimicrobial Activity (MIC) E. coli: ATCC 25922, broth microdilution CLSI M07-A9 (1a,1b,2a,2b) or broth dilution EUCAST (1c,1d,2c,2d), 0.5-256 µg/mL tested, biological triplicate, no visual growth; for MIC E. coli ATCC 25922: Table S3
# Experimental: as §1
# [2] = system: Staphylococcus aureus ATCC 9144; format: cell-based; conditions: for Antimicrobial Activity (MIC) S. aureus: ATCC 9144, broth microdilution CLSI M07-A9 (1a,1b,2a,2b) or broth dilution EUCAST (1c,1d,2c,2d), 0.5-256 µg/mL tested, biological triplicate, lowest concentration with no visual growth; for MIC S. aureus ATCC 9144: Table S3
# Experimental: as §1
# [3] = system: Staphylococcus epidermidis 1457; format: cell-based; conditions: for MIC S. epidermidis 1457: Table S3; for Antimicrobial Activity (MIC) S. epidermidis: strain 1457, broth microdilution CLSI M07-A9 (1a,1b,2a,2b) or broth dilution EUCAST (1c,1d,2c,2d), 0.5-256 µg/mL tested, biological triplicate, no visual growth
# Experimental: as §1
# [4] = system: Pseudomonas aeruginosa ATCC 27853; format: cell-based; conditions: for Antimicrobial Activity (MIC) P. aeruginosa: ATCC 27853, broth microdilution CLSI M07-A9 (1a,1b,2a,2b) or broth dilution EUCAST (1c,1d,2c,2d), 0.5-256 µg/mL tested, biological triplicate, no visual growth; for MIC P. aeruginosa ATCC 27853: Table S3
# Experimental: as §1
# Gram-negative bacteria = format: cell-based, E. coli and P. aeruginosa; conditions: text summary over E. coli ATCC 25922 and P. aeruginosa ATCC 27853
# Experimental: as §1
# [5] = technical replicate 1, biological replicate BR1
# [6] = technical replicate 1, biological replicate BR2
# [7] = technical replicate 1, biological replicate BR3
# [8] = technical replicate 2, biological replicate BR1
# [9] = technical replicate 2, biological replicate BR2
# [10] = technical replicate 2, biological replicate BR3
# [11] = technical replicate 3, biological replicate BR1
# [12] = technical replicate 3, biological replicate BR2
# [13] = technical replicate 3, biological replicate BR3
substance,measurement,setting,value
"N3-PEG200-RBBRF [2a, azidopeptide N3-PEG200-RBBRF, B = biphenylalanine, amidated C-terminus]",MIC against Gram-positive bacteria,Gram-positive bacteria,8 µg/mL
same,Antimicrobial Activity (MIC) E. coli,[1],64 µg/mL
same,MIC E. coli ATCC 25922,[1]; [5],64 µg/mL
same,MIC E. coli ATCC 25922,[1]; [6],64 µg/mL
same,MIC E. coli ATCC 25922,[1]; [7],64 µg/mL
same,MIC E. coli ATCC 25922,[1]; [8],64 µg/mL
same,MIC E. coli ATCC 25922,[1]; [9],64 µg/mL
same,MIC E. coli ATCC 25922,[1]; [10],64 µg/mL
same,MIC E. coli ATCC 25922,[1]; [11],64 µg/mL
same,MIC E. coli ATCC 25922,[1]; [12],64 µg/mL
same,MIC E. coli ATCC 25922,[1]; [13],64 µg/mL
same,Antimicrobial Activity (MIC) S. aureus,[2],8 µg/mL
same,MIC S. aureus ATCC 9144,[2]; [5],8 µg/mL
same,MIC S. aureus ATCC 9144,[2]; [6],8 µg/mL
same,MIC S. aureus ATCC 9144,[2]; [7],8 µg/mL
same,MIC S. aureus ATCC 9144,[2]; [8],8 µg/mL
same,MIC S. aureus ATCC 9144,[2]; [9],8 µg/mL
same,MIC S. aureus ATCC 9144,[2]; [10],8 µg/mL
same,MIC S. aureus ATCC 9144,[2]; [11],8 µg/mL
same,MIC S. aureus ATCC 9144,[2]; [12],8 µg/mL
same,MIC S. aureus ATCC 9144,[2]; [13],8 µg/mL
same,MIC S. epidermidis 1457,[3]; [5],4 µg/mL
same,MIC S. epidermidis 1457,[3]; [6],8 µg/mL
same,MIC S. epidermidis 1457,[3]; [7],8 µg/mL
same,MIC S. epidermidis 1457,[3]; [8],4 µg/mL
same,MIC S. epidermidis 1457,[3]; [9],8 µg/mL
same,MIC S. epidermidis 1457,[3]; [10],8 µg/mL
same,MIC S. epidermidis 1457,[3]; [11],4 µg/mL
same,MIC S. epidermidis 1457,[3]; [12],8 µg/mL
same,MIC S. epidermidis 1457,[3]; [13],8 µg/mL
same,Antimicrobial Activity (MIC) S. epidermidis,[3],8 µg/mL
same,Antimicrobial Activity (MIC) P. aeruginosa,[4],64 µg/mL
same,MIC P. aeruginosa ATCC 27853,[4]; [5],64 µg/mL
same,MIC P. aeruginosa ATCC 27853,[4]; [6],64 µg/mL
same,MIC P. aeruginosa ATCC 27853,[4]; [7],64 µg/mL
same,MIC P. aeruginosa ATCC 27853,[4]; [8],64 µg/mL
same,MIC P. aeruginosa ATCC 27853,[4]; [9],64 µg/mL
same,MIC P. aeruginosa ATCC 27853,[4]; [10],64 µg/mL
same,MIC P. aeruginosa ATCC 27853,[4]; [11],64 µg/mL
same,MIC P. aeruginosa ATCC 27853,[4]; [12],64 µg/mL
same,MIC P. aeruginosa ATCC 27853,[4]; [13],64 µg/mL
same,MIC against Gram-negative bacteria,Gram-negative bacteria,64 µg/mL
"N3-PEG400-RWWRF [1b, azidopeptide N3-PEG400-RWWRF, PEG400-linked, amidated C-terminus]",Antimicrobial Activity (MIC) E. coli,[1],>256 µg/mL
same,MIC E. coli ATCC 25922,[1]; [5],> 256 µg/mL
same,MIC E. coli ATCC 25922,[1]; [6],> 256 µg/mL
same,MIC E. coli ATCC 25922,[1]; [7],> 256 µg/mL
same,MIC E. coli ATCC 25922,[1]; [8],> 256 µg/mL
same,MIC E. coli ATCC 25922,[1]; [9],> 256 µg/mL
same,MIC E. coli ATCC 25922,[1]; [10],> 256 µg/mL
same,MIC E. coli ATCC 25922,[1]; [11],> 256 µg/mL
same,MIC E. coli ATCC 25922,[1]; [12],> 256 µg/mL
same,MIC E. coli ATCC 25922,[1]; [13],> 256 µg/mL
same,Antimicrobial Activity (MIC) S. aureus,[2],128 µg/mL
same,MIC S. aureus ATCC 9144,[2]; [5],128 µg/mL
same,MIC S. aureus ATCC 9144,[2]; [6],128 µg/mL
same,MIC S. aureus ATCC 9144,[2]; [7],128 µg/mL
same,MIC S. aureus ATCC 9144,[2]; [8],128 µg/mL
same,MIC S. aureus ATCC 9144,[2]; [9],128 µg/mL
same,MIC S. aureus ATCC 9144,[2]; [10],128 µg/mL
same,MIC S. aureus ATCC 9144,[2]; [11],128 µg/mL
same,MIC S. aureus ATCC 9144,[2]; [12],128 µg/mL
same,MIC S. aureus ATCC 9144,[2]; [13],128 µg/mL
same,MIC S. epidermidis 1457,[3]; [5],128 µg/mL
same,MIC S. epidermidis 1457,[3]; [6],128 µg/mL
same,MIC S. epidermidis 1457,[3]; [7],64 µg/mL
same,MIC S. epidermidis 1457,[3]; [8],128 µg/mL
same,MIC S. epidermidis 1457,[3]; [9],128 µg/mL
same,MIC S. epidermidis 1457,[3]; [10],128 µg/mL
same,MIC S. epidermidis 1457,[3]; [11],128 µg/mL
same,MIC S. epidermidis 1457,[3]; [12],128 µg/mL
same,MIC S. epidermidis 1457,[3]; [13],64 µg/mL
same,Antimicrobial Activity (MIC) S. epidermidis,[3],128 µg/mL
same,Antimicrobial Activity (MIC) P. aeruginosa,[4],>256 µg/mL
same,MIC P. aeruginosa ATCC 27853,[4]; [5],> 256 µg/mL
same,MIC P. aeruginosa ATCC 27853,[4]; [6],> 256 µg/mL
same,MIC P. aeruginosa ATCC 27853,[4]; [7],> 256 µg/mL
same,MIC P. aeruginosa ATCC 27853,[4]; [8],> 256 µg/mL
same,MIC P. aeruginosa ATCC 27853,[4]; [9],> 256 µg/mL
same,MIC P. aeruginosa ATCC 27853,[4]; [10],> 256 µg/mL
same,MIC P. aeruginosa ATCC 27853,[4]; [11],> 256 µg/mL
same,MIC P. aeruginosa ATCC 27853,[4]; [12],> 256 µg/mL
same,MIC P. aeruginosa ATCC 27853,[4]; [13],> 256 µg/mL
